Laboratory results taken from US9445596B2, “Small molecule compounds for the control of nematodes” (California Institute of Technology, priority 2011, dated 2016).
“Also recorded” adds a separate entry of the source.

Tests used:
P. pacificus = assay: Dauer formation assay; format: in vivo, Pristionchus pacificus; conditions: synthetic samples; first assayed at 1 μM
Description: Dauer formation assays were performed as described in Ogawa et al., Curr. Biol. 19:67-71 (2009), which is hereby incorporated by reference in its entirety, using heat- or kanamycin-killed E. coli OP50. Synthetic compounds were dissolved in ethanol (0.5 mM, stock solution) and combined with water to make a […] and subsequently added to 3 mL NGM-agar without peptone ([…], 0.3, 0.1 μM final concentrations).

[1] = system: P. pacificus strain RSB020; assay: Mouth-form dimorphism assay; format: in vivo, Pristionchus pacificus
Description: Mouth-form dimorphism assays were performed using P. pacificus strain RSB020. The synthetic compounds dissolved in ethanol (0.5 mM) were diluted with water to make 100 μl solution and subsequently added to 3 mL NGM-agar (1 μM final concentration). The assay plates were seeded with 50 μl OP50 culture in LB medium and incubated overnight at 20° C. to allow bacterial growth. Each replicate included the progeny of two mothers, which were picked as adult hermaphrodites of a consistent age (carrying 4-6 eggs) and which were all from the same P. pacificus culture plate. Following the placement of mothers on assay plates, plates were kept at 20° C. for six days, such that the entire broods were adults at the time of screening. A random sample of 50 hermaphrodite progeny was screened per plate. All animals were screened by differential interference contrast (DIC) microscopy on a Zeiss Axiskop. The following discrete characters were used to discriminate eurystomatous from stenostomatous individuals, respectively: (1) claw-shaped vs. flint-shaped (i.e. dorsoventrally symmetrical) dorsal tooth; (2) presence vs. absence of a subventral tooth; (3) strongly vs. weakly sclerotized stomatal walls. No intermediate mouth-forms were observed. Experiments were conducted in triplicate for each treatment. In assays of responses to compounds of several concentrations (1, 0.3, 0.1, 0.03, 0.01 μM final concentrations), experiments were performed as described above, with the following modifications. To allow greater resolution of responses to lower concentrations, 60 randomly screened individuals in each of five replicates per concentration per compound were assayed. All concentration-curve experiments were performed in parallel using mothers picked randomly from the same two source populations. To prepare large numbers of individual mothers for these experiments, source populations were established from virgin hermaphrodites to constrain the presence of males and were conditioned to well-fed and ambient conditions for at least one generation before mothers were picked for the assays.

[2] = system: several of the tested nematode species; assay: Retention assay, several nematode species; format: in vivo; conditions: 1 nM, 1 μM and 1 mM tested
Description: OP50 E. coli was grown on a standard 5 cm agar plate (made with standard Nematode Growth Medium). The bacterial lawn was 16 mm in diameter and was grown overnight at 20° C. before being used in trials. Two 4 mm spots (0.6 μL) were placed on opposite sides of the bacterial lawn (using a transparent template to guide spot placement), and several minutes elapsed for the liquid to settle in before placing nematodes down on the assay. Recording began immediately upon worm placement. 0.6 μL of the control was placed on one side of the lawn, and 0.6 μL of the experimental cue was placed on the other side of the lawn, changing the location of the cue throughout trials between left/right and top/bottom to avoid bias.
Nematodes were isolated by gender at the L4 stage the day before being used in trials as developed adults. Worms were evenly divided and placed at two points equidistant from the foci of the scoring region. Trials were recorded for 20 minutes, and frames were collected for analysis at 1 frame per second. Results were averaged from at least three different trials. For every nematode species in this study, a different total number of worms (using water in both scoring regions) was tested to determine the minimum number of worms necessary for consistent unbiased results over a 20 minute trial. The total number of worms used in the multiple species assays depended on that species' optimal parameters. 10 worms were used for P. redivivus males and females, 20 worms were used for C. elegans males and O. dolichuridae males, and 14 worms were used for S. glaseri males. The Automated Software was used to compare worm occupancy in each scoring region over time, and the Chemotaxis Index (Bargmann et al., Cell 74:515-27 (1993), which is hereby incorporated by reference in its entirety) was adapted to score preference or avoidance to each ascaroside.
A video camera attached to the microscope produced a digital video stream, which was then analyzed. The ratio of the time the average worm spent in each region of interest was calculated for every trial. For ease of implementation, all worms in a single experiment were assumed to be roughly the same size. Thus worm pixels were counted instead of whole worms, allowing fractions of a worm in the region of interest to be taken into account. It also eliminated the need for a shape-based worm identification algorithm, and allowed each frame to be analyzed independently. A band-pass filter was applied to each frame to eliminate the effect of uneven lighting and also accentuate the worms against the background. The worm was then identified after thresholding the filtered image. Throughout each experiment, the locations and sizes of the regions of interest were known. Through the filtering described above, it is known which pixels are occupied by worms and which ones are not. Thus, the ratio of worm-pixels to all pixels inside the region of interest can be calculated to produce the worm-occupancy ratio. This calculation was done for every frame, giving a plot output of worm-occupancy ratio vs. time for each region.

C. elegans males = assay: Attraction assay (long-range, point source); format: in vivo; conditions: point source on 10 cm plate
Description: 10 cm standard chemotaxis plates were prepared (Bargmann et al., Cell 74:515-27 (1993), which is hereby incorporated by reference in its entirety) and stored at 4° C. until the day before use. Standard 1 cm-diameter copper pipes were sectioned into 1 cm-tall segments to use for the holding chambers. The females/hermaphrodites were isolated overnight, washed 3 times in M9 buffer, and then allowed to wander on a plate pre-conditioned with 50 uL of 1000× streptomycin for 2 hours to kill any bacteria that might produce a false positive attractant. The nematodes were then washed 3 times, and the supernatant from the last wash was placed in a copper chamber, as the control, 1 cm from the border of the 10 cm plate. The nematodes were suspended in M9 within the copper chamber, 1 cm from the border opposite the control chamber. After 6 hours, they were subsequently removed and replaced with 3 μL of 1M sodium azide. 100 C. elegans adult males were isolated overnight, washed several times in ddH2O, and placed at the center of the agar plate. After several hours, males paralyzed within 2 cm of each region were scored. The Chemotaxis Index (Bargmann et al., Cell 74:515-27 (1993), which is hereby incorporated by reference in its entirety) was then used to score male chemotaxis to either point source.

[3] = system: C. elegans hermaphrodites and males; conditions: cited from earlier work
C. elegans = conditions: shown previously; cited from earlier work
[4] = system: C. elegans hermaphrodites and males; assay: Spot attraction assay; format: in vivo
Description: The spot attraction assays were conducted according to a previously reported method (Pungaliya et al., PNAS 106:7708-13 (2009); Srinivasan et al., Nature 454:1115-18 (2008), which are hereby incorporated by reference in their entirety). For both C. elegans hermaphrodites and males, 50-60 worms were harvested daily at the fourth larval stage (L4) and stored segregatedly by sex at 20° C. overnight, to be used as young adults the following day. For the competition experiments, two conditions were used: 120 nM ascr#3 and 10 nM icas#3 (Condition 1), or 12 μM ascr#3 and 1 μM icas#3 (Condition 2) in water containing 10% ethanol. Aliquots were stored at −20° C. in 20 μL tubes. 10% ethanol in water was used as control.
Attraction assays with hbas#3 were conducted as previously reported (Srinivasan et al., Nature 454:1115-18 (2008); Pungaliya et al., Proc. Natl. Acad. Sci. U.S.A. 106:7708-13 (2009), which are hereby incorporated by reference in their entirety). For the attraction assays, 50-60 hermaphrodite worms were harvested daily at the early fourth larval stage (L4) and stored at 20° C. overnight to be used as young adults the following day. Hbas#3 was dissolved in water containing 10% ethanol. Aliquots were stored at −20° C. in 20 μL tubes. 10% ethanol in water was used as control.

[5] = system: C. elegans hermaphrodites; assay: Quadrant chemotaxis assay; format: in vivo; conditions: see FIGS. 48A-B (spot attraction and quadrant chemotaxis assays); wild-type hermaphrodites
Description: Chemotaxis to both non-indole and indole ascarosides was assessed on 10 cm four-quadrant petri plates (Wicks et al., Dev. Biol. 221:295-307 (2000), which is hereby incorporated by reference in its entirety). Each quadrant was separated from adjacent ones by plastic spacers (FIG. 1B). Pairs of opposite quadrants were filled with nematode growth medium (NGM) agar containing either indole ascarosides or non-indole ascarosides at different concentrations. Animals were washed gently in a S-basal buffer, placed in the center of a four-quadrant plate with ascarosides in alternating quadrants, and scored after 15 minutes and 30 minutes. A chemotaxis index was calculated as: (the number of animals on ascaroside quadrants minus the number of animals on buffer quadrants)/(total number of animals).
Chemotaxis to hbas#3 was assessed on 10 cm four-quadrant petri plates (Wicks et al., Dev. Biol. 221:295-307 (2000), which is hereby incorporated by reference in its entirety). Each quadrant was separated from adjacent ones by plastic spacers. Pairs of opposite quadrants were filled with nematode growth medium (NGM) agar containing different concentrations of hbas#3. Animals were washed gently in an S-basal buffer and placed in the center of a four-quadrant plate with ascarosides in alternating quadrants, and scored after 15 minutes and 30 minutes. A chemotaxis index was calculated as: (the number of animals on ascaroside quadrants minus the number of animals on buffer quadrants)/(total number of animals).

[6] = synthetic samples, first assayed at 1 μM
[7] = literature (Pungaliya 2009; Srinivasan 2008)

C[C@H](CCCCC(=O)O[C@@H]1C[C@@H](O)[C@H](O[C@H](C)CCCCC(=O)O)O[C@H]1C)O[C@@H]1O[C@@H](C)[C@H](O)C[C@H]1O [dasc#1, (R)-6-(((2R,3R,5R,6S)-5-(((R)-6-(((2R,3R,5R,6S)-3,5-dihydroxy-6-methyltetrahydro-2H-pyran-2-yl)oxy)heptanoyl)oxy)-3-hydroxy-6-methyltetrahydro-2H-pyran-2-yl)oxy)heptanoic acid]
dauer induction (P. pacificus): inactive in the dauer formation assay
induction of the eurystomatous mouth form [1, 6]: regulates adult morphology; also recorded: strongly induce the eurystomatous mouth form

C[C@H](CCC(=O)O)O[C@@H]1O[C@@H](C)[C@H](O)C[C@@H]1O [part#9, (R)-4-(((2R,3S,5R,6S)-3,5-dihydroxy-6-methyltetrahydro-2H-pyran-2-yl)oxy)pentanoic acid]
dauer induction (P. pacificus): weaker dauer inducation
induction of the eurystomatous mouth form [1, 6]: inactive

C[C@H](CCC(=O)O[C@@H](CNC(=O)CCC(=O)O)c1ccccc1)O[C@@H]1O[C@@H](C)[C@H](O)C[C@H]1O [pasc#9, 4-(((R)-2-(((R)-4-(((2R,3R,5R,6S)-3,5-dihydroxy-6-methyltetrahydro-2H-pyran-2-yl)oxy)pentanoyl)oxy)-2-phenylethyl)amino)-4-oxobutanoic acid]
induction of the eurystomatous mouth form ([1]; high concentrations): weaker induction of the eurystomatous mouth form

CC1O[C@@H](O[C@H](C)CCCC/C=C/C(=O)O)[C@@H](O)C[C@H]1O (stereo partly shown) [ascr#3]
preference for areas conditioned by the ascaroside [2]: preferred
lowest amount eliciting male attraction (as low as) (C. elegans males): 5 femtomol
male attraction from a distance / chemotaxis towards a point source (C. elegans males): chemotax towards
most active amount for attraction in C. elegans ([3]; from 1 μM concentration, previous study (Srinivasan 2008)): ~1 pmol
response of social and solitary hermaphrodites ([3]; high dauer-inducing concentrations, previous studies): strongly deter
attraction of males [3, 7]: strongly attracts males
response of hermaphrodites [3, 7]: repels hermaphrodites
promotion of dauer entry (C. elegans): individually promote dauer entry

C[C@H](CCCCC(=O)O)O[C@@H]1O[C@@H](C)[C@H](OC(=O)c2c[nH]c3ccccc23)C[C@H]1O [icas#1]
attraction in the spot attraction assay ([4]; 1 pmol, N2 hermaphrodites and him-5 males): attractive to both C. elegans sexes
attraction in the spot attraction assay ([4]; high concentrations, males and hermaphrodites): attracted both males and hermaphrodites

C[C@H](CC/C=C/C(=O)O)O[C@@H]1O[C@@H](C)[C@H](O)C[C@H]1O [ascr#7]
preference for areas conditioned by the ascaroside [2]: preferred

C[C@H](CCC(=O)O)O[C@@H]1O[C@@H](C)[C@H](OC(=O)[C@H](C)CNC(N)=O)C[C@H]1OC(=O)CCCCO[C@@H]1O[C@@H](C)[C@H](O)C[C@H]1O [ubas#1, (R)-4-(((2R,3R,5R,6S)-3-((5-(((2R,3R,5R,6S)-3,5-dihydroxy-6-methyltetrahydro-2H-pyran-2-yl)oxy)pentanoyl)oxy)-6-methyl-5-(((R)-2-methyl-3-ureidopropanoyl)oxy)tetrahydro-2H-pyran-2-yl)oxy)pentanoic acid]
induction of the eurystomatous mouth form [1, 6]: inactive

C[C@H](CCCC/C=C/C(=O)O)O[C@@H]1O[C@@H](C)[C@H](OC(=O)c2ccc(O)cc2)C[C@H]1O [hbas#3, (8R)-(3′R-Hydroxy-5′R-(4-hydroxybenzoyloxy)-6′S-methyl-(2H)-tetrahydropyran-2′-yloxy)non-(2E)-enoic acid]
attraction in the spot attraction assay ([4]; wild-type (N2) hermaphrodites, dose dependent manner): attracted
lowest concentration with strong attraction of C. elegans (as low as) [5]: 10 femtomolar
